Data on nine compounds can be found in ChEMBL document CHEMBL5233249, “Recent advancements in the development of heterocyclic anti-inflammatory agents” (Eur J Med Chem, 2020).

In brackets after ≈: the same amount, converted by molar mass.

Assay [1] concerns Rattus norvegicus. The experiment in a line: Anti-inflammatory activity in Carrageenan-induced paw edema in Wistar albino rat assessed as inhibition of edema measured after 5 hr relative to control. Set-up: scale not given: the % may be the effect or the level left. The class given is functional.
Assay [2] concerns the target T1, Prostaglandin G/H synthase 2 (Homo sapiens, UniProt P35354).
T1 sequence (P35354 whole entry): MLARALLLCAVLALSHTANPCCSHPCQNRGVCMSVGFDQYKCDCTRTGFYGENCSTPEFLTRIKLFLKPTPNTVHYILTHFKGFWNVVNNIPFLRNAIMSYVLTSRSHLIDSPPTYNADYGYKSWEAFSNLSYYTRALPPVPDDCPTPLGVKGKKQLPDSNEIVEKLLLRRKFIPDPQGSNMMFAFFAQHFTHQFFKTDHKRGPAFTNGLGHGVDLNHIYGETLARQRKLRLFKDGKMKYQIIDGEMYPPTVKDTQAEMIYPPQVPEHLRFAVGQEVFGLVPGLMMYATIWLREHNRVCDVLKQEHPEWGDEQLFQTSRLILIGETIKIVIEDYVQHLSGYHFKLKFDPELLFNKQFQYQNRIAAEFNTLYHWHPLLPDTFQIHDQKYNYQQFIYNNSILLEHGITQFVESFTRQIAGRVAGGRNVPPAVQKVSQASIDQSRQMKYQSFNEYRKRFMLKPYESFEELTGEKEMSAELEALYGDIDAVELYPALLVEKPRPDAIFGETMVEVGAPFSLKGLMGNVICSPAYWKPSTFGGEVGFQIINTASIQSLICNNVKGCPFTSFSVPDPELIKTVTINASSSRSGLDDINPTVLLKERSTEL
The experiment in a line: Inhibition of human COX-2 assessed as by fluorescence based microplate reader assay.

Assay [3] concerns Rattus norvegicus. The experiment in a line: Anti-inflammatory activity in Carrageenan-induced paw edema in Wistar albino rat assessed as inhibition of edema measured after 1 hr relative to control. Details: scale not given: the % may be the effect or the level left. The class given is functional.
In assay [4] the test system is Rattus norvegicus. In words: Anti-inflammatory activity in Carrageenan-induced paw edema in Wistar albino rat assessed as inhibition of edema measured after 3 hr relative to control. The class given is functional. Details: scale not given: the % may be the effect or the level left.
Assay [5] addresses T2, Prostaglandin G/H synthase 1 (Ovis aries, UniProt P05979).
T2 sequence (P05979 whole entry): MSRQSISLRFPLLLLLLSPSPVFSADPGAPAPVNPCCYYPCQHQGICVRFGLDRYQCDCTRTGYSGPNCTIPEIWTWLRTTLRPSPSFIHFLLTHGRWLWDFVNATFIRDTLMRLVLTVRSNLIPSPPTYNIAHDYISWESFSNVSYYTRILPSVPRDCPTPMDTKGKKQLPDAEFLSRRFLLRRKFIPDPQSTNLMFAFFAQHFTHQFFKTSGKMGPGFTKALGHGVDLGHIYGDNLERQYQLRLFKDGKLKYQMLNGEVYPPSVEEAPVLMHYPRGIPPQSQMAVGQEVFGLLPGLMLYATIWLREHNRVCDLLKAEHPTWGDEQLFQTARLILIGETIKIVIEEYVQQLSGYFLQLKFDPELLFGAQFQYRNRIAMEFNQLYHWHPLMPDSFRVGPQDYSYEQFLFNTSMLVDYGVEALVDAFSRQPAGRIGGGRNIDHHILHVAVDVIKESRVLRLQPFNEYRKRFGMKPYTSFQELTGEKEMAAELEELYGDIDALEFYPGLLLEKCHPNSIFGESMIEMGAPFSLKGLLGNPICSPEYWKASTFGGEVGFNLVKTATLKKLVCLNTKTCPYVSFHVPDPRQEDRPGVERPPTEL
The experiment in a line: Inhibition of ovine COX-1 by EIA method.

Assay [6] has as its system Rattus norvegicus. The experiment in a line: Anti-inflammatory activity in Carrageenan-induced paw edema in Swiss albino rat assessed as inhibition relative to control. The class given is functional.
Assay [7] concerns Rattus norvegicus. In words: Anti-inflammatory activity in Carrageenan-induced rat paw edema in Wistar rat assessed as increase in paw edema volume (reference value: 1.66 +/- 0.01). The class given is functional.
In assay [8] the test system is Rattus norvegicus. In words: Anti-inflammatory activity in Carrageenan-induced rat paw edema in Wistar rat assessed as increase in paw edema volume at 1 hr relative to control. It is filed as functional.
In assay [9] the test system is Rattus norvegicus. The experiment in a line: Anti-inflammatory activity in Carrageenan-induced rat paw edema in Wistar rat assessed as increase in paw edema volume at 2 hr. It is filed as functional.
Assay [10] concerns Rattus norvegicus. The experiment in a line: Anti-inflammatory activity in Carrageenan-induced rat paw edema in Wistar rat assessed as increase in paw edema volume at 2 hr relative to control. It is filed as functional.
Assay [11] deals with Rattus norvegicus. In words: Anti-inflammatory activity in Carrageenan-induced rat paw edema in Wistar rat assessed as increase in paw edema volume at 4 hr. The class given is functional.
For assay [12], the system named is Rattus norvegicus. The experiment in a line: Anti-inflammatory activity in Carrageenan-induced rat paw edema in Wistar rat assessed as increase in paw edema volume at 4 hr relative to control. It is filed as functional.
For assay [13], the system named is Rattus norvegicus. The experiment in a line: Anti-inflammatory activity in Carrageenan-induced paw edema in Wistar rat assessed as inhibition of paw edema. The class given is functional.
The subject of assay [14] is Rattus norvegicus. In words: Anti-inflammatory activity in Carrageenan-induced rat paw edema in Wistar rat assessed as increase in paw edema volume relative to control. The class given is functional.
Assay [15] addresses Prostaglandin G/H synthase 1 (Homo sapiens, UniProt P23219). The experiment in a line: Inhibition of COX-1 (unknown origin) at 40 uM relative to control.
The test system of assay [16] is Rattus norvegicus. In words: Anti-inflammatory activity in Carrageenan-induced rat paw edema in Wistar rat assessed as increase in paw edema volume at 1 hr. The class given is functional.
The test system of assay [17] is Rattus norvegicus. In words: Anti-inflammatory activity against formalin-induced foot paw edema in Wistar rat at 5 mg/kg, po assessed as inhibition of edema measured after 4 hr relative to control. The class given is functional.
In assay [18] the test system is Mus musculus. The experiment in a line: Anti-inflammatory activity in Carrageenan-induced paw edema mouse model assessed as inhibition of granuloma measured after 24 hrs relative to control. The class given is functional.
Assay [19] relates to Mus musculus. The experiment in a line: Analgesic activity in PO dosed Swiss albino mouse assessed as protection of paw edema measured after 2 hrs at 20 mg/kg relative to control. It is filed as functional.
For assay [20], the system named is Rattus norvegicus. In words: Anti-inflammatory activity against formalin-induced foot paw edema in PO dosed rat at 10 mg/kg assessed as inhibition of edema measured after 1 hr relative to control. The class given is functional. Set-up: scale not given: the % may be the effect or the level left.
The subject of assay [21] is Rattus norvegicus. In words: Ulcerogenic activity in Swiss albino Wistar rat assessed as ulcer lesion score at 100 mg/kg, po. The class given is functional.
The nature of assay [22]: Inhibition of MAPK p38 (unknown origin). Details: species or system Homo sapiens.
The test system of assay [23] is Rattus norvegicus. The experiment in a line: Anti-inflammatory activity in Carrageenan-induced rat paw edema in Wistar rat assessed as reduction in inhibition of edema measured after 4 hrs relative to control. Set-up: scale not given: the % may be the effect or the level left. The class given is functional.
The nature of assay [24]: Anti-inflammatory activity assessed as protein denaturation using bovine serum albumin relative to control. It is filed as functional.
Assay [25] concerns Rattus norvegicus. The experiment in a line: Anti-inflammatory activity against Carrageenan-induced paw edema in PO dosed Wistar albino rat assessed as reduction in hind paw edema volume at 20 mg/kg relative to control. Set-up: scale not given: the % may be the effect or the level left. The class given is functional.
In assay [26] the test system is Rattus norvegicus. In words: Anti-inflammatory activity in Carrageenan-induced paw edema in PO dosed rat model at 10 mg/kg assessed as inhibition of paw edema measured after 4 hrs relative to control. It is filed as functional.
Assay [27] concerns Rattus norvegicus. In words: Anti-inflammatory activity in Carrageenan-induced paw edema in PO dosed rat model at 20 mg/kg assessed as inhibition of paw edema measured after 4 hrs relative to control. The class given is functional.
Assay [28] in a line: Anti-inflammatory activity assessed using bovine serum albumin/egg albumin proteins assessed as protein denaturation measured at 95 degC for 20 mins by measuring turbidity by UV-Vis spectrophotometer. It is filed as functional.
Assay [29] relates to Erythrocyte. In words: Anti-inflammatory activity in rat red blood cells assessed as stabilization of cell membrane at 500 microg/ml relative to control. Particulars: dose 500 µg/ml. The class given is functional.
Assay [30] deals with Erythrocyte. The experiment in a line: Anti-inflammatory activity in rat red blood cells assessed as stabilization of cell membrane at 200 microg/ml relative to control. The class given is functional. The settings on record: dose 200 µg/ml.

Prostaglandin G/H synthase 1 (Homo sapiens, UniProt P23219), sequence (P23219 whole entry): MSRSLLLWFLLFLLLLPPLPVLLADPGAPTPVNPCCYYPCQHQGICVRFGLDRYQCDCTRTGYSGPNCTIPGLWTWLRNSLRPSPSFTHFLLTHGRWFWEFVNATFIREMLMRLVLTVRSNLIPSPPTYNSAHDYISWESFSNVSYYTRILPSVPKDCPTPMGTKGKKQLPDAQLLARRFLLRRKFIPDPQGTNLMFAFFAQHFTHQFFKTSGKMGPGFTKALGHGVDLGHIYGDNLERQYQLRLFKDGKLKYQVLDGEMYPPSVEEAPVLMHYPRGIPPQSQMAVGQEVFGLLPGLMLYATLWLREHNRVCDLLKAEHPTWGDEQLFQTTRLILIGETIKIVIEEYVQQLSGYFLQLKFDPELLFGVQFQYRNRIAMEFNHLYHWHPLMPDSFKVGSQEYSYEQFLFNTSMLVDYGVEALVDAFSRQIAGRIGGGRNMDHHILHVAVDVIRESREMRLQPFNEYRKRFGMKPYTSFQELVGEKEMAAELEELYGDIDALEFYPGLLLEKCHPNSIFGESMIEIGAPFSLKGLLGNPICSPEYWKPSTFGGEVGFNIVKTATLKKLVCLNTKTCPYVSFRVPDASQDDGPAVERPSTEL

`CCOc1cc(C)nn1C(=O)CNc1ncnc2c1c(C)nn2-c1ccccc1`: the Activity in the assay with Rattus norvegicus [1] was found to be 90%; in the assay on Rattus norvegicus [3], 82%; in the assay with Rattus norvegicus [4], 94%. For the same compound, in assay [2], the IC50 came out at 0.16 µM.
The compound `C[C@H](NC(=O)c1nc2c(cnn2-c2ccccc2)c(=O)[nH]1)c1ccccc1` displayed an IC50 in assay [5] of 28.4 µM. Moreover, the “inhibition (INH)” value came out at 51% in the assay with Rattus norvegicus [6]; 64% in the assay with Rattus norvegicus [8]; 65% with Rattus norvegicus [10]; 64% in the assay on Rattus norvegicus [12]; 64% in the assay on Rattus norvegicus [14]. In addition, the Activity is 1.05 mL with Rattus norvegicus [7], 1.69 mL with Rattus norvegicus [9], 2.01 mL in the assay on Rattus norvegicus [11] and 1.5 mL with Rattus norvegicus [16]. The ED50 with Rattus norvegicus [13] came out at 7.6 mg/kg. The same compound came in with an inhibition in assay [15] of 73.4%.
`CCCOC(=O)c1nc2c(cnn2-c2ccccc2)c(=O)[nH]1` displayed an IC50 in assay [5] of 19.5 µM. Also, the “inhibition (INH)” value with Rattus norvegicus [6] is 36%; in the assay with Rattus norvegicus [8] it was 40%; in the assay on Rattus norvegicus [10] it was 51%; in the assay with Rattus norvegicus [12] it was 55%; in the assay with Rattus norvegicus [14], 40%. Also, the Activity in the assay on Rattus norvegicus [7] was determined as 0.9 mL; in the assay on Rattus norvegicus [9] it was 1.8 mL; in the assay with Rattus norvegicus [11] it was 2.11 mL; in the assay on Rattus norvegicus [16] it was 1.66 mL. Besides, the ED50 with Rattus norvegicus [13] is 8.3 mg/kg. Further, the inhibition in [15] worked out at 86%.
With `O=C(O)Cc1ccccc1Nc1c(Cl)cccc1Cl` [DICLOFENAC], in the assay with Rattus norvegicus [17], the inhibition in vivo at 5 mg/kg amounted to 50%. For the same compound, in the assay on Mus musculus [18], the “inhibition (INH)” value is reported as 36.1%. Moreover, the Activity in the assay with Mus musculus [19] is 65%; in the assay on Rattus norvegicus [20], 30.43%; with Rattus norvegicus [21] it was 32.5 mm.
The compound `COc1ccc(NC(=O)c2ccc(Nc3ncnc4c3cnn4-c3ccccc3)cc2)cc1` displayed an IC50 in assay [22] of 0.038 µM. In addition, the Activity stood at 76.35% with Rattus norvegicus [23] and 80.2% in assay [24].
Regarding `O=C1/C(=N\Nc2ccccc2Br)C(Nc2ccccc2F)=NN1CNc1ccccc1`, the Activity in the assay with Rattus norvegicus [25] was 64%.
On to `Cc1nn(-c2ccccc2)c2c1C(c1ccc([N+](=O)[O-])cc1)N1C=CC=NC1=N2` (centres undefined), for which the inhibition in vivo at 10 mg/kg in the assay on Rattus norvegicus [26] was 73%. Moreover, the inhibition in vivo at 20 mg/kg in the assay on Rattus norvegicus [27] amounted to 80%.
On to `Cc1nn(-c2ccccc2)c2c1C(c1ccccc1Cl)N1C=CC=NC1=N2` (centres undefined), for which, in the assay on Rattus norvegicus [26], the inhibition in vivo at 10 mg/kg came out at 73%. Further, the inhibition in vivo at 20 mg/kg in the assay on Rattus norvegicus [27] was 86%.
Take `Cc1ccc(-c2nn(-c3ccccc3)cc2CCC(=O)OCc2cn(-c3ccc([N+](=O)[O-])cc3)nn2)cc1`: in assay [28], the half-inhibitory concentration (IC50) came out at 57.24 µg/mL (≈ 113 µM). Further, the results for the Activity in the assay with Erythrocyte [29] and in the assay on Erythrocyte [30] were 97% and 74%, respectively.
